Counter-ions that a name gives are not always drawn.

The values that follow come from patent US4746509A, “Transdermal medicament” (Rhone-Poulenc Sante, priority 1983, dated 1988).

The nature of the data set: Solubility in water. The class given is physicochemical.

`CCCC(=O)Nc1ccc(OCC(O)CNC(C)C)c(C(C)=O)c1` (stereo not shown) [acebutolol hydrochloride]: the solubility in water result is given as “soluble in water”.
